From US10087197B2, “Selective extraction of anions from solution” (Western Michigan University Research Foundation, priority 2012, dated 2018)

What was measured:
[1] = Solubility of nano-jar aggregates and polymer in solvents; assay type: physicochemical; conditions: dark blue powder; for solubility in a wide variety of solvents: CCl4, CS2, aromatic hydrocarbons, ethers, ketones, esters, nitriles, amines, halogenated and nitro compounds, DMF and DMSO
Text: The unusually high solubility of (Bu4N)2[SO4^2−⊂{cis-Cu^II(μ-OH)(μ-pz)}6+12+10], and (Bu4N)2[SO4^2−⊂{cis-Cu^II(μ-OH)(μ-pz)}8+14+9]
Production of Host 1 and Host 2 via depolymerisation of [Cu^II(μ-OH)(μ-pz)]∞ includes the steps of combining aqueous solutions of CuSO4 and KOH/Hpz (1:2:1 molar ratio), which results in the formation of a blue-purple precipitate (Scheme 1). […] Elemental analysis results concur with the formula [Cu(OH)(pz)] (for C3H4CuN2O, M.W.=147.62, calculated/found: C, 24.4124.25%; H, 2.73/2.72%; N, 18.9818.40%). The structure of this intractable material likely consists of linear polymeric chains resulting from an all-trans arrangement of the pyrazole and OH moieties about the copper centers, similar to the ones found in [Cu^II(μ-pz)2]∞.
(Bu4N)HSO4 or (Bu4N)2SO4 can be added to a suspension of [Cu(μ-OH)(μ-pz)]∞ in THF or toluene, which leads to the immediate formation of a deep blue solution, and gradual dissolution of the solid. […] Hexane vapor diffusion to a toluene solution is then used to obtain dark blue single crystals in the form of blocks and thin plates.
In particular, one embodiment includes anion-encapsulating aggregates based on encapsulating host assemblies such as {cis-Cu^II(μ-OH)(μ-4-Mepz)}27 (“Host 13”), {cis-Cu^II(μ-OH)(μ-4-Mepz)}28(“Host 14”), {cis-Cu^II(μ-OH)(μ-4-Mepz)}29(“Host 15”), {cis-Cu^II(μ-OH)(μ-4-Mepz)}30(“Host 16”), {cis-Cu^II(μ-OH)(μ-4-Mepz)}31(“Host 17”), and {cis-Cu^II(μ-OH)(μ-4-Mepz)}32(“Host 18”). These alkyl ligand-bound pyrazole anion-encapsulating aggregates include 4-methylpyrazole (“4-Mepz”) and are somewhat soluble in pentane, hexane and cyclohexane. Hosts 13, 15, and 17 selectively encapsulate both carbonate and sulfate anions. Hosts 14 and 18 selectively encapsulate sulfate anions. Host 16 selectively encapsulates carbonate anions. These encapsulating host assemblies form anion-encapsulating aggregates which are capable of encapsulating anions present as contaminants in aqueous-hydrocarbon solvent mixtures, including without limitation in-process nuclear waste.
Another embodiment of an anion-encapsulating host containing a longer chain ligand-bound pyrazole is based on the formation of encapsulating host assemblies including 4-butylpyrazole. Anion-encapsulating aggregates incorporating 4-butylpyrazole are very soluble in pentane, hexane and cyclohexane, and are gradually less soluble in longer hydrocarbons (such as heptane, octane, decalin, and hexadecane). These anion-encapsulating aggregates can be used to encapsulate anions present as contaminants in aqueous-hydrocarbon solvent mixtures, such as those present in in-process nuclear waste.

[2] = Thermal stability of rings on recrystallization from boiling n-butanol; assay type: physicochemical; conditions: recrystallization from boiling n-butanol (b.p.=118° C.)
Protocol: (Bu4N)2[SO4^2−⊂{cis-Cu^II(μ-OH)(μ-pz)}28] can also be crystallized from chlorobenzene, 1,2-dichloroethane or n-butylamine by hexane vapor diffusion, and from CH2Cl2 by Et2O vapor diffusion. SO4^2−⊂{cis-Cu^II(μ-OH)(μ-pz)}31 can also be crystallized as the Bu4N-salt from chlorobenzene. Moreover, crystals of (Bu4N)2[SO4^2−⊂{cis-Cu^II(μ-OH)(μ-pz)}28] were also obtained by recrystallization from boiling n-butanol (b.p.=118° C.), indicating stability of the rings at that temperature.

[3] = Preliminary selectivity study: self-assembly reaction with competing anions, sulfate determined gravimetrically as BaSO4; conditions: for encapsulation of sulfate into the product: 1:54 molar ratio of sulfate and nitrate (or perchlorate) anions, gravimetric as BaSO4 after digestion with 6M HCl; for selectivity for sulfate ion in the presence of halides: in the presence of fluoride, chloride and bromide ions; for preference for sulfate anion over nitrate or perchlorate anions: preliminary selectivity studies
Text: A self-assembly reaction using a 1:54 molar ratio of sulfate and nitrate (or perchlorate) anions led to the quantitative encapsulation of sulfate into the product, as determined gravimetrically by precipitation as BaSO4 after digestion with 6M HCl. […] The selectivity for sulfate over nitrate, along with the stability at high (basic) pH is especially relevant for the sulfate-extraction efforts during nuclear waste treatment by vitrification, because it allows liquid-liquid extraction. The methods described herein also offer the benefit of recyclability of the sulfate-encapsulating assemblies. The encapsulating host assemblies can be recovered by stirring the dry residue obtained after BaSO4 precipitation (containing CuCl2, Hpz and Et3NHCl) with excess Et3N in DMF. Following such mixing, the characteristic absorption at 599 nm indicates the re-assembly of the [cis-Cu^II(μ-OH)(μ-pz)]n rings.

[4] = Liquid-liquid extraction of sulfate from aqueous nitrate solution at pH 14; conditions: 5 M nitrate (NaNO3), 0.044 M sulfate (Na2SO4), 1.25 M NaOH (pH 14); sulfate to nitrate ratio 1:114
Text: In experiments, an aqueous solution containing 5 M nitrate (NaNO3), 0.044 M sulfate (Na2SO4) and 1.25 M NaOH (pH 14), in which the sulfate to nitrate ratio is 1:114 was combined together with an organic phase containing the stoichiometrically (based on the amount of sulfate) required amounts of nano-jar components.

| solubility in a wide variety of solvents [1] | solubility in alcohols [1] | solubility in aliphatic hydrocarbons and water [1] | stability of the rings at temperature [2] | Substance | encapsulation of sulfate into the product [3] | selectivity for sulfate ion in the presence of halides [3] | preference for sulfate anion over nitrate or perchlorate anions [3] | extraction of sulfate anions from aqueous phase to organic phase [4] |
| --- | --- | --- | --- | --- | --- | --- | --- | --- |
| highly soluble | slightly soluble | insoluble |  | (Bu4N)2[SO4^2−⊂{cis-Cu^II(μ-OH)(μ-pz)}8+14+9] |  |  |  |  |
| highly soluble | slightly soluble | insoluble | stability | (Bu4N)2[SO4^2−⊂{cis-Cu^II(μ-OH)(μ-pz)}6+12+10] |  |  |  |  |
|  |  |  |  | {cis-Cu^II(μ-OH)(μ-pz)}8+14+9 [Host 2] | quantitative | Partial selectivity | marked preference | effectively and selectively extracted |
|  |  |  |  | {cis-Cu^II(μ-OH)(μ-pz)}6+12+10 [Host 1] | quantitative | Partial selectivity | marked preference | effectively and selectively extracted |
